Eight substances from patent publication US20180265867A1, “NUCLEIC ACID MOLECULES WITH ENHANCED ACTIVITY” (priority 2015, published 2018) can be followed below.

Series [1] relates to GAPDH. The experiment in a line: GAPDH gene knockdown in MG63 cells by RT-PCR. It is filed as cell-based, human. As to conditions: MG63 cells; for GAPDH gene knockdown: 50 nM, 24 h. The method, then: At 70% confluency, a day prior to transfection, the cells were seeded at a density of 35 000 cells in a 24-well cell culture plate to achieve 60-80% confluence at the day of transfection. Cell penetrating siRNAs (cpRNAs) of different lengths were transfected at 50 nM concentrations with Magnet Assisted Transfection (MATra-si) reagent for siRNAs (IBA GmbH, Göttingen, Germany) according to the manufacturers' protocols. Briefly, the siRNA was mixed with MATra-si reagent composed of supermagnetic ironoxide nanoparticles and incubated for 20 min. A complex was formed which was added to the cells to be transfected. A strong magnetic force was applied beneath the cells for 15 min. This forced the complex to be drawn into the cells by the magnetic field, and as a result the siRNA was delivered directly into the cytosol. For carrier free transfection experiments, cpRNAs were simply added to cells lines MG63, HOB, HCT116, fibroblasts and keratinocytes at 50 nM concentrations. Cells were also transfected with negative control siRNA (scrambled sequence) and cells left untreated were taken as controls. Each transfection was performed in triplicate. Post transfection, cells were incubated for 24 hours.
For the experiments involving lysosomotropic agent chloroquine (CQ), CQ was first neutralized to pH 7.4 using 1 M NaOH prior to use. MG63 cells were transfected with dT2, dT5, dT8, (dT5)2, as(dT5), and bl(dT5) siRNA in presence or absence of 100 μM CQ or using MATra-si and incubated for 24 h. Similar experiments were performed for other cpRNAs namely, dA5, dT5, dG5, (dT5)2, rA5 and dC5. For the control experiment, cells were either left untreated or transfected with negative control siRNA (scrambled sequence). Each transfection experiment was performed in triplicate.
After performing transfection experiments for 24 h, 48 h and 72 h respectively, total RNA was isolated from cells by adding 500 μl of lysis buffer (Qiagen, Germany), followed by homogenization of cell lysates using QIAshredder (Qiagen, Germany). RNA was extracted from cell lysates by RNeasy Mini Kit (Qiagen, Germany). All RNA samples were treated with DNase using TURBO-DNAfree (Ambion, USA). Agilent 2100 BioAnalyzer (Agilent Technologies, Palo Alto, Calif.) was used to confirm high quality of all RNA samples, which reports an RNA Integrity Number (RIN) that takes into account the entire electrophoretic RNA trace produced in the analysis. A RIN of greater than or equal to seven indicates the RNA is suitable for high stringency applications.
cDNA synthesis was performed in triplicate using total RNA reverse transcribed using High Capacity cDNA reverse transcription kit (Applied Biosystems, USA), with non-template control added to ensure a lack of signal in assay background. Reactions were incubated on a 96-well Applied Biosystems 9800 Fast Thermal Cycler PCR System at 37° C. for 60 min followed by 95° C. for 5 min. The real-time PCR reactions were carried out with 10 μl of 2×TaqMan® Universal PCR Master Mix, no AmpErase® UNG (Applied Biosystems, USA), 9 μl diluted cDNA, and 1 μl of TaqMan gene specific assay mix in a 20 μl final reaction volume. Reference gene beta-actin (ACTB) (Applied Biosystems, USA) was selected as control for normalization of TaqMan data. The assay included a no-template control, a standard curve of five serial dilution points (in steps of 3-fold) of cDNA mixture. Probes specific for IFN-α (Hs01022060_m1), IFN-β (Hs01077958_s1), IFN-γ (Hs00985251_m1), ACTB(Hs01060665_g1) and GAPDH (Hs02758991_g1) were purchased from Applied Biosystems. The amplification was carried out using the 7500 Fast Real-Time PCR System (Applied Biosystems, USA) using a 40-cycle program. The 7500 software automatically calculates raw Ct (cycle threshold) values. Data from samples with a Ct value equal to or below 35 were further analyzed. […]

Series [2] can be described thus: Thermal denaturation (Tm) of siRNA duplexes. It is filed as physicochemical. As to conditions: for Tm: 7.5 mM phosphate buffer pH 7.0 containing 140 mM KCl, 1 μM strands, 40-95° C.; for Δ Tm: Tm relative to canonical siRNA (dT2); for drop in Tm: as compared to canonical siRNA. The method, then: Thermal denaturation studies of siRNA was carried out in phosphate buffer, pH 7.0, containing 140 mM KCl. UV absorbance was monitored at 260 nm in the temperature range from 40 to 95° C. using a Lambda 35 UV-Vis spectrophotometer equipped with a Peltier temperature programmer with a heating rate of 0.5° C./min. Samples (1 μM RNA) were denatured at 90° C. for 3 min followed by slow cooling to 27° C. prior to the measurements. Tm values were obtained from the maxima of the first derivatives of the melting curves. All Tm values given are the averages of three independent sets of experiments (±0.3° C. error range).

The test system of series [3] is Ctnnb1 (β-Catenin). The experiment in a line: Ctnnb1 expression in MC3T3-E1 cells by quantitative RT-PCR. It is filed as cell-based, mouse. The method, then:
MC3T3-E1 cells were cultured in α-MEM (Sigma-Aldrich, Haverhill, UK) medium containing 10% FBS, 1% L-Glutamine, and 1% antibiotics (PeSt) at 37° C. with 5% CO2. One day prior to the miRNA treatment, 35,000 cells were plated per each well of a 24-well plate. On the experiment day, cells were replaced with 2% heat inactivated-FBS containing α-MEM medium with 1% L-Glutamine, and 1% antibiotics (PeSt). miR-34a-CP (final concentration: 50 nM) was given to the each well. Mirvana scrambled miRNA mimic was used as a negative control.
After 24 hours of transfection, and incubation, RNA extraction was performed by using miRCURY RNA Isolation Kit—Cell and Plant (#300100) and protocol from Exiqon, Vedbæk, Denmark. RNA samples were treated with DNase for 30 minutes at 37 degrees, thereafter inactivated with a DNase inactivation solution (TUTRBO DNase AM2238 thermofisher). Thereafter, RNA concentrations were measured using NanoDrop ND-1000 from NanoDrop Technologies, Wilmington, Del.
The cDNA was made from the total RNA using High Capacity cDNA reverse transcription kit (Applied Biosystems, USA). Reactions were performed on a 96-well Bio-Rad Thermal Cycler PCR System at 37° C. for 60 minutes, and at 95° C. for 5 min respectively. Real-time PCR reactions were performed as follows: 10 μl of 2×TaqMan® Universal PCR Master Mix, no AmpErase® UNG (Applied Biosystems, USA), 9 μl 1:5 diluted cDNA, and 1 μl of TaqMan gene specific assay mix. Final volume of the reaction mix was 20 uL. Internal control gene beta-actin (ACTB) (Applied Biosystems, USA) was selected as control for normalization of TaqMan data. The qRT-PCR reaction comprised a non-template control of cDNA in order to rule out any non-specific reading. Taqman probes for Ctnnb1, Sox9, Actb, were obtained from Applied Biosystems. The qRT-PCR amplification was carried out using the Bio-Rad qRT-PCR Thermocycler.
In order to achieve the transfection reagent free delivery of therapeutically potential microRNAs, we tested miR-34a and compared with miR-34a-CP. Since microRNAs unlike siRNAs have multiple targets in the cell, and there is a necessity to reduce the off-target and undesirable effects if any, we have also designed siRNA model siR-34a-CP as stated above. We have used mouse preosteoblast cell line MC3T3-E1 obtained from calvarial bone for the in-vitro functional validation of cell-penetrating molecules. On the day before transfection experiment, 35000 MC3T3-E1 cells were cultured per each well of the 24-well culture plate in alpha-Minimum Essential Medium with 10% heat inactivated FBS, 1% L-Glutamine, 1% antibiotics (Pe/St). […] 5% CO2. Thereafter, RNA extraction, cDNA preparation, and quantitative real-time PCR was performed by using TaqMan procedure.

d = 2'-deoxy (DNA); r = 2'-OH (RNA)

Regarding “(dT5)2: Symmetrical GAPDH siRNA, sense SEQ ID NO: 3 and antisense SEQ ID NO: 5, dT5 overhang at both 3′-ends (sense CCGAGCCACAUCGCUCAGATTTTT; antisense UCUGAGCGAUGUGGCUCGGTTTTT; sugars from the 5' end r19 d5, backbone not given here)”, in series [1] (MATra-si transfection), the “enhancement in activity compared to canonical siRNA” value turned out to be 10% and the GAPDH gene knockdown is listed as 70%. The GAPDH gene knockdown in series [1] (carrier-free transfection) is 65%. Further, in series [2], the Tm (commonly the temperature at which the thermal transition is half complete) amounted to 80.1 °C, the “Δ Tm” value was −1.1 °C and the “drop in Tm” value is approximately 1 °C.
In series [1] (carrier-free transfection), “as(dT5): GAPDH siRNA, sense SEQ ID NO: 1 with dT2, antisense SEQ ID NO: 5 with dT5 3′-overhang (sense CCGAGCCACAUCGCUCAGATT; antisense UCUGAGCGAUGUGGCUCGGTTTTT; sense: sugars from the 5' end r19 d2, backbone not given here; antisense: sugars from the 5' end r19 d5, backbone not given here)” yielded a GAPDH gene knockdown of 20%. In series [2], the midpoint of thermal melting (Tm) is 79.5 °C and the “Δ Tm” value is −1.7 °C.
In series [1] (carrier-free transfection), “bl(dT5): GAPDH siRNA, sense SEQ ID NO: 3 with dT5, blunt ended antisense SEQ ID NO: 11 without overhang (sense CCGAGCCACAUCGCUCAGATTTTT; antisense UCUGAGCGAUGUGGCUCGG; sense: sugars from the 5' end r19 d5, backbone not given here; antisense: RNA, backbone not given here)” returned a GAPDH gene knockdown of 60%. In series [1] (3′-dT2 of antisense strand removed, versus dT5), this substance returned a decrease in activity of 20%. Further, in series [2], the midpoint of thermal melting (Tm) was 79.1 °C and the “Δ Tm” value is −2.1 °C.
On to “dA5: GAPDH siRNA, sense SEQ ID NO: 6 with dA5 3′-overhang, antisense SEQ ID NO: 2 with dT2 (sense CCGAGCCACAUCGCUCAGAAAAAA; antisense UCUGAGCGAUGUGGCUCGGTT; sense: sugars from the 5' end r19 d5, backbone not given here; antisense: sugars from the 5' end r19 d2, backbone not given here)”, for which the “RNAi activity among different 5-nt candidates” value in series [1] (FIG. 2B) is “highest RNAi activity”. For the same substance, in series [1] (carrier-free transfection), the GAPDH gene knockdown amounted to 80%. In series [2], the Tm is 79.6 °C, the “Δ Tm” value was −1.6 °C and the “drop in Tm” value was approximately 1.5 °C.
Turning to “dC5: GAPDH siRNA, sense SEQ ID NO: 8 with dC5 3′-overhang, antisense SEQ ID NO: 2 with dT2 (sense CCGAGCCACAUCGCUCAGACCCCC; antisense UCUGAGCGAUGUGGCUCGGTT; sense: sugars from the 5' end r19 d5, backbone not given here; antisense: sugars from the 5' end r19 d2, backbone not given here)”, in series [2], the midpoint of thermal melting (Tm) was determined as 80.9 °C and the “Δ Tm” value is −0.3 °C.
For “dG5: GAPDH siRNA, sense SEQ ID NO: 7 with dG5 3′-overhang, antisense SEQ ID NO: 2 with dT2 (sense CCGAGCCACAUCGCUCAGAGGGGG; antisense UCUGAGCGAUGUGGCUCGGTT; sense: sugars from the 5' end r19 d5, backbone not given here; antisense: sugars from the 5' end r19 d2, backbone not given here)”, in series [2], the Tm was 79.2 °C, the “Δ Tm” value was −2.0 °C and the “drop in Tm” value is approximately 2 °C.
As to “miR-34a: Natural miR-34a duplex, sense SEQ ID NO: 20, antisense SEQ ID NO: 21 (sense CAAUCAGCAAGUAUACUGCCCU; antisense UGGCAGUGUCUUAGCUGGUUGU; unmodified RNA) [reference compound]”, the Ctnnb1 expression result in series [3] (transfected with MaTra (FIG. 12)) is reported as “induced over expression of Ctnnb1”; in series [3] (without transfection reagent MaTra (FIG. 12)), “did not show any effect on the expression levels of Ctnnb1”.
“rA5: GAPDH siRNA, sense SEQ ID NO: 9 with ribo A5 3′-overhang, antisense SEQ ID NO: 10 with U2 (sense CCGAGCCACAUCGCUCAGAAAAAA; antisense UCUGAGCGAUGUGGCUCGGUU; RNA, backbone not given here)” had a GAPDH gene knockdown in series [1] (carrier-free transfection) of 60%. In series [2], the Tm is 79.0 °C and the “Δ Tm” value is −2.2 °C.
